Earlier results, collected in US12478593B2, “Formulations for hair growth” (JENIVISION INC., priority 2016, dated 2025).

Key:
[1] = test system: eyelash hair follicle growth cycle; details: mouse eyelash model
eyelashes = details: humans
[2] = Xalatan

Row | stability in aqueous solution (de-esterification) [2] | Compound | effect on anagen growth phase of eyelashes [1] | eyelash growth (eyelashes)
1 |  | CCNC(=O)CCC/C=C\C[C@@H]1[C@@H](/C=C/[C@@H](O)CCc2ccccc2)[C@H](O)C[C@@H]1O [bimatoprost] | increased entry into anagen and extension of the anagen growth phase | produces eyelash growth
2 | facile hydrolysis | CC(C)OC(=O)CCC/C=C\C[C@@H]1[C@@H](CC[C@@H](O)CCc2ccccc2)[C@H](O)C[C@@H]1O [latanoprost] |  | 
